Data published in patent US8283465B2, “Triazolopyridine compound, and action thereof as prolyl hydroxylase inhibitor or erythropoietin production-inducing agent” (Japan Tobacco Inc., priority 2009, dated 2012).
Where a name gives a salt, the structure may show the parent alone. Read-outs that look alike come from different tables or passages of the source.

What was measured:
human PHD2 = target: T1, human PHD2 (Homo sapiens, UniProt Q9GZT9); experiment: Measurement of human PHD inhibitory activity (TR-FRET, hydroxylation of HIF-1α partial peptide); type: biochemical; settings: human PHD2 enzyme 1 nM, 25° C. 30 min, values consisting solely of numbers
T1 construct: made in house; host or cells: Sf9 insect cells (baculovirus, pVL1393 vector)
Method in brief: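 FLAG-tagged human PHD2 from Sf9 cells (1 nM final) hydroxylates a biotinylated 19-residue HIF-1α peptide, 30 min at 25° C. After EDTA stop, hydroxyproline detected by TR-FRET using Eu/Xlent-labelled VBC complex; % inhibition relative to no-enzyme and no-compound wells.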

[1] = tested on: human EPO production, Hep3B cells; experiment: Human EPO production activity in Hep3B cells (EPO-ELISA of culture supernatant); type: cell-based; settings: for EC50: 24 hr incubation, values consisting solely of numbers, read-out: EC50 (μM) in vitro, human EPO production activity; for production activity (%) at 30 μM in vitro, human EPO: 24 hr, values containing %, relative to maximum production
Method in brief: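 Hep3B cells were dosed with compound 24 h after plating and incubated 24 h at 37° C. Secreted EPO in supernatant was measured by ELISA. Values are EC50, or activity (%) at 30 μM scaled between untreated and maximum production.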

[2] = read-out: IC50 (μM) in vitro, human PHD inhibitory activity

T1 sequence (Q9GZT9 whole entry): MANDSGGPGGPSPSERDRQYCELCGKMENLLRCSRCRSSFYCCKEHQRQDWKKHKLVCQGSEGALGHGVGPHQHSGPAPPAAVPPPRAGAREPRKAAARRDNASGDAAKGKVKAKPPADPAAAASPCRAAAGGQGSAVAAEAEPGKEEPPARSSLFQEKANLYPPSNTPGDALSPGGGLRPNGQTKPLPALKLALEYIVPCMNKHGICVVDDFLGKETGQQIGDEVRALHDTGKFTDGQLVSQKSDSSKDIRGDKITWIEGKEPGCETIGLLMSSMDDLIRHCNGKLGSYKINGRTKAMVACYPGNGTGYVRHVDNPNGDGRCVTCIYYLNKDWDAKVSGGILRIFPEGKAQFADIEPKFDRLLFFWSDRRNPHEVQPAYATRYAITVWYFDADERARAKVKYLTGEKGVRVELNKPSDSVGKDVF

| Structure (SMILES) | IC50 (human PHD2; [2]) [µM] | EC50 ([1]; Homo sapiens) [µM] | production activity (%) at 30 μM in vitro, human EPO [1] [%] | IC50 (human PHD2; IC50 (μM) in vitro, human PHD inhibitory activity) [µM] | EC50 [1] [µM] |
| --- | --- | --- | --- | --- | --- |
| O=C(O)CNC(=O)c1c(O)cc(-c2ccc(Cl)s2)c2ncnn12 [Example 96, {[8-(5-chlorothiophen-2-yl)-6-hydroxy[1,2,4]triazolo[1,5-a]pyridine-5-carbonyl]amino} acetic acid hydrochloride] | 0.29 | 5.9 |  |  |  |
| O=C(O)CNC(=O)c1c(O)cc(CCC2CCCCC2)c2ncnn12 [Example 98, {[8-(2-cyclohexylethyl)-6-hydroxy[1,2,4]triazolo[1,5-a]pyridine-5-carbonyl]amino} acetic acid hydrochloride] | 1.13 | 25.6 |  |  |  |
| O=C(O)CNC(=O)c1c(O)cc(CCC2CCCC2)c2ncnn12 [Example 99, {[8-(2-cyclopentylethyl)-6-hydroxy[1,2,4]triazolo[1,5-a]pyridine-5-carbonyl]amino} acetic acid hydrochloride] | 0.87 | 20.2 |  |  |  |
| O=C(O)CNC(=O)c1c(O)cc(CCc2ccccc2C(F)(F)F)c2ncnn12 [Example 100, ({6-hydroxy-8-[2-(2-trifluoromethyl phenyl)ethyl][1,2,4]triazolo[1,5-a]pyridine-5-carbonyl}amino) acetic acid hydrochloride] | 0.82 | 18 |  |  |  |
| Cl.O=C(O)CNC(=O)c1c(O)cc(CCc2cccc(C(F)(F)F)c2)c2ncnn12 [Example 101, ({6-hydroxy-8-[2-(3-trifluoromethyl phenyl)ethyl] [1,2,4]triazolo[1,5-a]pyridine-5-carbonyl}amino) acetic acid hydrochloride] | 0.37 |  | 6 |  |  |
| O=C(O)CNC(=O)c1c(O)cc(CCc2ccc(C(F)(F)F)cc2)c2ncnn12 [Example 102, ({6-hydroxy-8-[2-(4-trifluoromethyl phenyl)ethyl] [1,2,4]triazolo[1,5-a]pyridine-5-carbonyl}amino) acetic acid hydrochloride] | 0.51 | 16 |  |  |  |
| O=C(O)CNC(=O)c1c(O)cc(-c2ccc(F)c(C(F)(F)F)c2)c2ncnn12 [Example 106, {[8-(4-fluoro-3-trifluoromethyl-phenyl)-6-hydroxy[1,2,4]triazolo[1,5-a]pyridine-5-carbonyl]amino} acetic acid hydrochloride] | 0.23 | 6 |  |  |  |
| Cl.O=C(O)CNC(=O)c1c(O)c(-c2ccccc2)cn2c(-c3ccccc3)nnc12 [Example 111, [(7-hydroxy-3,6-diphenyl[1,2,4]triazolo[4,3-a]pyridine-8-carbonyl)amino] acetic acid hydrochloride] | 1.1 |  | 0 |  |  |
| Cc1nnc2c(C(=O)NCC(=O)O)c(O)c(-c3ccccc3)cn12.Cl [Example 112, [(7-hydroxy-3-methyl-6-phenyl[1,2,4]triazolo[4,3-a]pyridine-8-carbonyl)amino] acetic acid hydrochloride] | 3.09 |  | 0 |  |  |
| O=C(O)CNC(=O)c1c(O)ccn2c(-c3ccccc3)nnc12 [Example 113, [(7-hydroxy-3-phenyl[1,2,4]triazolo[4,3-a]pyridine-8-carbonyl)amino] acetic acid] | 0.56 |  | 0 |  |  |
| Cl.O=C(O)CNC(=O)c1c(O)ccn2c(CCc3ccccc3)nnc12 [Example 114, [(7-hydroxy-3-phenethyl[1,2,4]triazolo[4,3-a]pyridine-8-carbonyl)amino] acetic acid hydrochloride] | 1.2 |  | 0 |  |  |
| Cl.O=C(O)CNC(=O)c1c(O)ccn2c(CCC3CCCCC3)nnc12 [Example 115, {[3-(2-cyclohexylethyl)-7-hydroxy[1,2,4]triazolo[4,3-a]pyridine-8-carbonyl]amino} acetic acid hydrochloride] | 1.8 |  | 0 |  |  |
| O=C(O)CNC(=O)c1c(O)cc(CCc2ccccc2)n2ncnc12 [Example 116, [(7-hydroxy-5-phenethyl[1,2,4]triazolo[1,5-a]pyridine-8-carbonyl)amino] acetic acid] |  |  |  | 0.18 | 5.6 |

The remaining molecules from weak to strong by IC50 (human PHD2; [2]), led by results:

| IC50 (human PHD2; [2]) [µM] | EC50 ([1]; Homo sapiens) [µM] | Structure (SMILES) | production activity (%) at 30 μM in vitro, human EPO [1] [%] | IC50 (human PHD2; IC50 (μM) in vitro, human PHD inhibitory activity) [µM] | EC50 [1] [µM] |
| --- | --- | --- | --- | --- | --- |
| 0.19 | 6.3 | O=C(O)CNC(=O)c1c(O)cc(-c2cc(F)cc(C(F)(F)F)c2)c2ncnn12 [Example 104, {[8-(3-fluoro-5-trifluoromethyl-phenyl)-6-hydroxy[1,2,4]triazolo[1,5-a]pyridine-5-carbonyl]amino} acetic acid hydrochloride] |  |  |  |
| 0.18 | 6.9 | O=C(O)CNC(=O)c1c(O)cc(-c2cc(Cl)cc(C3CC3)c2)c2ncnn12 [Example 103, {[8-(3-chloro-5-cyclopropylphenyl)-6-hydroxy[1,2,4]triazolo[1,5-a]pyridine-5-carbonyl]amino} acetic acid hydrochloride] |  |  |  |
| 0.17 | 13.7 | O=C(O)CNC(=O)c1c(O)cc(CCc2cc(F)cc(F)c2)c2ncnn12 [Example 109, ({8-[2-(3,5-difluoro-phenyl)-ethyl]-6-hydroxy[1,2,4]triazolo[1,5-a]pyridine-5-carbonyl}amino) acetic acid hydrochloride] |  |  |  |
| 0.16 | 8.9 | O=C(O)CNC(=O)c1c(O)cc(-c2ccc(Cl)cc2)c2ncnn12 [Example 108, {[8-(4-chlorophenyl)-6-hydroxy[1,2,4]triazolo[1,5-a]pyridine-5-carbonyl]amino} acetic acid] |  |  |  |
| 0.15 | 6.5 | O=C(O)CNC(=O)c1c(O)cc(-c2cccc(C(F)(F)F)c2)c2ncnn12 [Example 110, {[6-hydroxy-8-(3-trifluoromethyl phenyl)[1,2,4]triazolo[1,5-a]pyridine-5-carbonyl]amino} acetic acid hydrochloride] |  |  |  |
| 0.13 | 3.5 | O=C(O)CNC(=O)c1c(O)cc(-c2cc(C(F)(F)F)cc(C(F)(F)F)c2)c2ncnn12 [Example 97, {[8-(3,5-bis-trifluoromethyl-phenyl)-6-hydroxy[1,2,4]triazolo[1,5-a]pyridine-5-carbonyl]amino} acetic acid hydrochloride] |  |  |  |
| 0.12 | 4.3 | O=C(O)CNC(=O)c1c(O)cc(-c2ccc(Cl)c(Cl)c2)c2ncnn12 [Example 95, {[8-(3,4-dichlorophenyl)-6-hydroxy[1,2,4]triazolo[1,5-a]pyridine-5-carbonyl]amino} acetic acid hydrochloride] |  |  |  |
| 0.11 | 9.7 | O=C(O)CNC(=O)c1c(O)cc(-c2ccc(F)c(Cl)c2)c2ncnn12 [Example 94, {[8-(3-chloro-4-fluorophenyl)-6-hydroxy[1,2,4]triazolo[1,5-a]pyridine-5-carbonyl]amino} acetic acid hydrochloride] |  |  |  |
| 0.1 | 5.9 | O=C(O)CNC(=O)c1c(O)cc(-c2cc(F)cc(Cl)c2)c2ncnn12 [Example 105, {[8-(3-chloro-5-fluorophenyl)-6-hydroxy[1,2,4]triazolo[1,5-a]pyridine-5-carbonyl]amino} acetic acid hydrochloride] |  |  |  |
